Measurements taken from the NIST ThermoML archive (doi:10.1021/je900732r).
± gives the expanded uncertainty stated by the source.

Assay: mn = molality of the nth substance listed, in mol/kg
Details: 101 kPa, Liquid; for speed of sound: Pulse-echo method

[Ni+2].[O-][Cl+3]([O-])([O-])[O-].[O-][Cl+3]([O-])([O-])[O-] [nickel perchlorate] + CO
Details | mass density, 283.15 K [kg/m3] | mass density, 288.15 K [kg/m3] | mass density, 293.15 K [kg/m3] | mass density, 298.15 K [kg/m3] | mass density, 303.15 K [kg/m3] | mass density, 308.15 K [kg/m3] | mass density, 313.15 K [kg/m3] | speed of sound, 298.15 K [m/s]
m1 = 0.04976 | 810.894 ± 0.47 | 806.238 ± 0.48 | 801.564 ± 0.48 | 796.875 ± 0.49 | 792.174 ± 0.5 | 787.453 ± 0.51 | 782.702 ± 0.51 | 1108.7 ± 0.6
m1 = 0.06138 | 813.322 ± 0.47 | 808.669 ± 0.47 | 804 ± 0.48 | 799.318 ± 0.49 | 794.619 ± 0.49 | 789.897 ± 0.5 | 785.142 ± 0.51 | 1110.3 ± 0.6
m1 = 0.07317 | 815.812 ± 0.46 | 811.165 ± 0.47 | 806.497 ± 0.48 | 801.821 ± 0.48 | 797.126 ± 0.49 | 792.41 ± 0.5 | 787.658 ± 0.51 | 1111.9 ± 0.6
m1 = 0.08448 | 818.152 ± 0.46 | 813.508 ± 0.47 | 808.845 ± 0.47 | 804.169 ± 0.48 | 799.474 ± 0.49 | 794.767 ± 0.49 | 790.033 ± 0.5 | 1113.4 ± 0.6
m1 = 0.09669 | 820.699 ± 0.46 | 816.056 ± 0.47 | 811.401 ± 0.47 | 806.731 ± 0.48 | 802.044 ± 0.49 | 797.34 ± 0.49 | 792.608 ± 0.5 | 1115.2 ± 0.61
m1 = 0.1085 | 823.23 ± 0.46 | 818.592 ± 0.46 | 813.937 ± 0.47 | 809.271 ± 0.47 | 804.589 ± 0.48 | 799.878 ± 0.49 | 795.147 ± 0.5 | 1116.7 ± 0.61
m1 = 0.1208 | 825.801 ± 0.45 | 821.168 ± 0.46 | 816.518 ± 0.47 | 811.856 ± 0.47 | 807.179 ± 0.48 | 802.481 ± 0.48 | 797.759 ± 0.49 | 1118.3 ± 0.61
m1 = 0.1447 | 830.859 ± 0.45 | 826.231 ± 0.45 | 821.586 ± 0.46 | 816.93 ± 0.47 | 812.261 ± 0.47 | 807.568 ± 0.48 | 802.853 ± 0.49 | 1121.7 ± 0.62
m1 = 0.1676 | 835.774 ± 0.44 | 831.151 ± 0.45 | 826.515 ± 0.45 | 821.865 ± 0.46 | 817.198 ± 0.47 | 812.514 ± 0.47 | 807.813 ± 0.48 | 1124.8 ± 0.62
m1 = 0.1901 | 840.657 ± 0.44 | 836.042 ± 0.44 | 831.412 ± 0.45 | 826.771 ± 0.46 | 822.114 ± 0.46 | 817.44 ± 0.47 | 812.739 ± 0.47 | 1127.8 ± 0.62
m1 = 0.2123 | 845.469 ± 0.43 | 840.858 ± 0.44 | 836.233 ± 0.44 | 831.599 ± 0.45 | 826.95 ± 0.46 | 822.28 ± 0.46 | 817.588 ± 0.47 | 1130.6 ± 0.63
m1 = 0.2356 | 850.636 ± 0.43 | 846.033 ± 0.43 | 841.413 ± 0.44 | 836.783 ± 0.45 | 832.14 ± 0.45 | 827.476 ± 0.46 | 822.785 ± 0.46 | 1134.2 ± 0.63
